Data: patent US5527815A, “Carboxymethylidenecycloheptimidazole derivatives, method of manufacturing the same and therapeutic agents containing these compounds” (Kotobuki Seiyaku Co., Ltd., priority 1993, dated 1996)

Assays:
Angiotensin II receptor = molecular target: T1, Angiotensin II receptor (Oryctolagus cuniculus, UniProt P34976); experiment: AII receptor antagonistic activity: inhibition of angiotensin II induced contraction of isolated rabbit thoracic aorta; assay type: cell-based; settings: isolated rabbit thoracic aorta contracted by angiotensin II; Van Rossum method; values shown in parenthesis
T1 construct: Rabbit thoracic aorta is isolated, contracted by angiotensin II; from tissue; host or cells: rabbit thoracic aorta
T1 sequence (P34976 1-359): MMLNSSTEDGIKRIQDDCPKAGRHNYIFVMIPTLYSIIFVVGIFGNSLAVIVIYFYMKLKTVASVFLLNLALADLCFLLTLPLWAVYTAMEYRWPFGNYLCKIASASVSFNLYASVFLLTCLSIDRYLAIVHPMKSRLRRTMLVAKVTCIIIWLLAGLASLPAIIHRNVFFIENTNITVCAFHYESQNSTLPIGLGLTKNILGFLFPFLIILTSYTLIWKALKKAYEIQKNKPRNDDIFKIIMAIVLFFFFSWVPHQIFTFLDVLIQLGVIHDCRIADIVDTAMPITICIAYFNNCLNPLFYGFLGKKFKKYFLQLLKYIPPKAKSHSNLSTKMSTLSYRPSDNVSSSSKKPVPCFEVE
Description: [AII receptor antagonistic activity]
Angiotensin II receptor activity experiments are carried out according to P. C. Wong et al. (Hypertension 15, 823 (1990)).
Rabbit thoracic aorta is isolated, contracted by angiotensin II. The inhibition of contraction by the compound of formula (1) is expressed as pA2 from dose-response curve (Schild, Brit. J. Pharmacol. 14, 48 (1959)) or expressed as pD2 ' according to the method of J. M. Van Rossum (Arch. Intern. Pharmacodyn., 143, 229 (1963)).

pressor responses to AII = experiment: Inhibition of AII induced blood pressure increase in rats; assay type: in vivo; settings: Rattus norvegicus, po, test compound 0.3 mg/kg orally, AII 30 ng/kg i.v., pressor responses measured at set times
Description: [Inhibition of All induced Blood Pressure Increase]
Carotid artery and left femoral vein in rats were cannulated. Next day, the carotid catheter was connected to a pressure transducer for monitoring arterial blood pressure. After the measurement of AII (30 ng/kg, i.v.) pressor responses, test compounds (0.3 mg/kg) were administered orally.
Thereafter, the pressor responses to AII at set times were measured and the inhibition percent was calculated according to the comparison of the pressor responses.

CCCc1nc2c(n1Cc1ccc(-c3ccccc3-c3nnn[nH]3)cc1)/C(=C/C(=O)OC(C)OC(=O)OC(C)C)CCCC2 (centres unmarked) [Compound 29, 2-Propyl-8-(1-isopropoxycarbonyloxy)ethoxycarbonylmethylidene-1-[(2'-(1H-tetrazole-5-yl)biphenyl-4-yl)methyl]-4,5,6,7-tetrahydro-cycloheptimidazole]
pD2' (Angiotensin II receptor): 8.18 | inhibition in vivo at 0.3 mg/kg (pressor responses to AII): ≥ 70%
